# Read-outs that look alike come from different tables or passages of the source.
# Legend:
# Leukemia B = assay: Inhibition of primary tumor cell cultures (48 hours) vs NK1 receptor immunostaining (Example 1); assay type: cell-based; settings: Homo sapiens, 1 micromolar, read-out: Percentage of inhibition of cell cultures
# Method: (§1) Cell cultures. To obtain tumor cells from human primary tumors we used the method described in De Bari et al. (De Bari et al. 2001). Briefly, small pieces of the tumors were digested into a hyaluronidase solution (Sigma-Aldrich, USA) at a concentration of 1 mg/ml during 15 minutes at 37°C, and then they were treated with 6 mg/ml of collagenase type IV (Invitrogen) during 2 hours at 37°C. Consecutively, cells were washed, and resuspended in the DMEM culture medium with high concentration of glucose (Dulbecco's Modified Eagle's Medium, Invitrogen) supplemented with 1% of antibiotics-antimycotics (Invitrogen) and with 1% of sodium pyruvate (Invitrogen), and the cells were seeded in culture slides at a concentration of 10.000 cells per square centimeter. When cells reached confluence, the adherent cells were separated using sterile trypsin at 0,5% (Invitrogen) and they were used among passages 3 and 9. For the assays shown next, tumor cells were seeded on slides at a concentration of 25.000 cells per well. A total of 6 wells containing the tumor cells were used as survival control. […] All the cultures were kept during 48 hours and later on recollected for their analysis.
# (§2) Immunohistochemistry techniques. The presence of NK1 receptors was also analyzed using immunohistochemistry techniques. Briefly, a sample of each of the cultures of the cell lines used in the present invention, was centrifuged (5 minutes at 1.500 rpm) and the pellet obtained was dehydrated using increasing concentrations of ethanol and, finally, xylol. Then, said dehydrated samples were embedded in paraffin, creating a block of cells. Such paraffin blocks were cut with a microtome at 5 microns thickness, and were placed on microscope slides adequate to perform immunohistochemistry techniques. Consecutively, they were de-paraffinized by immersing them in xylol, to be finally hydrated using a solution containing decreasing concentrations of ethanol, and finally submerged them into water. […] After this, the samples were left to cool down at room temperature for 10 minutes. The endogenous peroxidase activity was blocked with 3% peroxide of hydrogen for 30 minutes at room temperature. After washing the samples with 0.05 M of Tris buffer, they were incubated with 10% non-immune pork serum at for 30 minutes at room temperature. To analyze the expression of NK1 receptors, the cellular samples were incubated in the presence of anti-NK1 antibodies (S8305, Sigma-Aldrich) diluted 1:1000, overnight at 4°C. Afterwards, the samples were washed in Tris buffer 0.05 M at room temperature. The next step was the addition of Envision System-HRP (Dako) reagents for 30 minutes at room temperature. Then, the samples were washed again in Tris buffer 0.05 M and the immunoreactivity was visualized through light microscopy with a chromogenic solution containing 3,3'-Diaminobenzidine (DAB+; Dako, USA). To differentiate the cell nuclei, they were slightly stained with hematoxylin. As negative control, it was used samples not incubated with the primary antibody anti-NK1, which was replaced by non-immune serum. All the samples were evaluated.
# (§3) To value the immunostaining in each of the cases six cuts were performed to be analyzed by the immunohistochemistry technique. In each of the six cuts, it was counted cells in 20 fields (magnification 400x) using an Olympus microscope (model CX31). In each field it was counted the total number of cells and the number of cells presenting immunostaining, calculating afterwards the percentage of cells which presented immunostaining.
# [1] = test system: human primary tumor cells; assay: Inhibition of primary tumor cell cultures vs absence or presence of AKT protein (Example 4; tumor type per table line); assay type: cell-based; settings: Non Hodgkin Lymphoma B (diffuse B cell lymphoma); cases with presence of AKT; 100 micromolar
# Method: (§4) Cell cultures. […] Briefly, small pieces of the tumors were digested into a hyaluronidase solution (Sigma-Aldrich, USA) at a concentration of 1 mg/ml during 15 minutes at 37°C, and then they were treated with 6 mg/ml of collagenase type IV (Invitrogen) during 2 hours at 37°C. Consecutively, cells were washed, and resuspended in the DMEM culture medium with high concentration of glucose (Dulbecco's Modified Eagle's Medium, Invitrogen) supplemented with 1% of antibiotics-antimycotics (Invitrogen) and with 1% of sodium pyruvate (Invitrogen), and the cells were seeded in culture slides at a concentration of 10.000 cells per square centimeter. When cells reached confluence, the adherent cells were separated using sterile trypsin at 0,5% (Invitrogen) and they were used among passages 3 and 9. For the assays shown next, tumor cells were seeded on slides at a concentration of 25.000 cells per well. A total of 6 wells containing the tumor cells were used as survival control. […] All the cultures were kept during 48 hours and later on recollected for their analysis.
# Afterwards, the cells were cultured in presence of several antagonists of the NK1 receptor.
# In each case it was determined the presence or absence of the AKT protein effector downstream in the PI3 Kinases pathway.
# To determine the presence of the AKT protein in the different cultures Western Blot technique was performed (following the description in example 1-Western Blot section), but using as primary antibody with reference: Akt (pan) (11E7) Rabbit mAb (4685, Cell Signalling).
# The antibody against NK1 receptor (Table 26) was used at 1/50 concentration. The percentages of inhibition are expressed in percentage of variation in relation to control ± standard deviation.
# Glioma = assay: Inhibition of primary tumor cell cultures (48 hours) vs NK1 receptor immunostaining (Example 1); assay type: cell-based; settings: Homo sapiens, 1 micromolar, read-out: Percentage of inhibition of cell cultures
# Method: as §1, §2, §3
# [2] = test system: Lung carcinoma (small cell type); assay: as above; assay type: cell-based; settings: Homo sapiens, 1 micromolar, read-out: Percentage of inhibition of cell cultures
# Method: as §1, §2, §3
# [3] = test system: human primary tumor cells; assay: Inhibition of primary tumor cell cultures vs absence or presence of ERK  protein (Example 3; tumor type per table line); assay type: cell-based; settings: Non Hodgkin Lymphoma T (diffuse T cell lymphoma), 100 micromolar
# Method: as §4
# Consecutively, the cells were placed in cultures in the presence of several antagonists of the NK1 receptor.
# In each case it was determined the presence or absence of the downstream effector in the MAP Kinases ERK pathway.
# To determine the presence of the ERK protein, it was performed a Western Blot technique, using as primary antibody: Phospho-p44/42 MAPK (Erk1/2) (Thr202/Tyr204) (D13.14.4E) XP® Rabbit mAb (4370, Cell Signalling). To determine the presence of the MEK protein, it was performed the Western Blot technique, using as primary antibody Phospho-MEK1/2 (Ser217/221) (9121, Cell Signalling).
# The antibody against NK1 receptor (Table 21) was used at 1/50 concentration. The percentages of inhibition are expressed in percentages of variation in relation to control ± standard deviation.
# Prostate carcinoma = assay: cells; settings: Homo sapiens, 1 micromolar
# Method: as §1, §2, §3
# [4] = test system: Lung carcinoma (non small cell type); assay: Inhibition of primary tumor cell cultures (48 hours) vs NK1 receptor immunostaining (Example 1); assay type: cell-based; settings: Homo sapiens, 1 micromolar, read-out: Percentage of inhibition of cell cultures
# Method: as §1, §2, §3
# Fibrosarcoma = assay: as above; assay type: cell-based; settings: Homo sapiens, 1 micromolar, read-out: Percentage of inhibition of cell cultures
# Method: as §1, §2, §3
# [5] = test system: Carcinoma of the uterine cervix; assay: as above; assay type: cell-based; settings: Homo sapiens, 1 micromolar, read-out: Percentage of inhibition of cell cultures
# Method: as §1, §2, §3
# [6] = test system: Lung carcinoma (small cell lung carcinoma); assay: Inhibition of primary tumor cell cultures vs Kras mutation (Example 2); assay type: cell-based, human; settings: Homo sapiens, Cases with Kras mutated; 100 micromolar; read-out: Percentage of inhibition of cell cultures
# Method: (§5) To obtain tumor cells from human primary tumors we used the method described in De Bari et al. (De Bari et al. 2001). Briefly, small pieces of the tumors were digested into a hyaluronidase solution (Sigma-Aldrich, USA) at a concentration of 1 mg/ml during 15 minutes at 37°C, and then they were treated with 6 mg/ml of collagenase type IV (Invitrogen) during 2 hours at 37°C. Consecutively, cells were washed, and resuspended in the DMEM culture medium with high concentration of glucose (Dulbecco's Modified Eagle's Medium, Invitrogen) supplemented with 1% of antibiotics-antimycotics (Invitrogen) and with 1% of sodium pyruvate (Invitrogen), and the cells were seeded in culture slides at a concentration of 10.000 cells per square centimeter. When cells reached confluence, the adherent cells were separated using sterile trypsin at 0,5% (Invitrogen) and they were used among passages 3 and 9. For the assays shown next, tumor cells were seeded on slides at a concentration of 25.000 cells per well. A total of 6 wells containing the tumor cells were used as survival control. […] All the cultures were kept during 48 hours and later on recollected for their analysis.
# (§6) In each case the presence or not of mutations in K-ras gene was determined.
# (§7) To determine the existence of mutations in the K-ras gene DNA from cancer tumor cells was extracted from samples obtained from the different cancer tumor cells, using DNA extraction kits from Takara (Madison, WI, US) or Ambion (Huntingdon, Cambridgeshire, United Kingdom), following the manufacturer's instructions, and as it has been previously published (Di Fiore F, et al. 2007). Consecutively it was analyzed by sequencing the exon 2 of the KRAS gene, , by means of PCR amplification from previously extracted cancer tumor DNA, using the following sense primer (SEQ ID NO. 15): 5'-[sequence]-3' and anti-sense primer (SEQ ID NO. 16): 5'-[sequence]-3'. After the purification using the Qiagen extraction kit, the PCR products were sequenced using the Big Dye Terminator Kit V3.1 (Applied Biosystems, Foster City, CA, U.S.) and an ABI Prism 377 or 3100 DNA sequencer (Applied Biosystems). The presence of a heterozygous mutation in the KRAS gene in cancer tumor cells of the cultures was defined as the appearance of a mutant peak of a height of at least a third of the wild type. All the sequence analysis were executed at least twice in two independent PCR.
# (§8) The antibody against NK1 receptor (Table 16) was used at 1/50 concentration. The percentages of inhibition are expressed in percentage of variation in relation to control ± standard deviation.
# [7] = test system: Thyroid carcinoma (follicular carcinoma); assay: as above; assay type: cell-based, human; settings: Homo sapiens, Cases with Kras mutated; 100 micromolar; read-out: Percentage of inhibition of cell cultures
# Method: as §5, §6, §7, §8
# Hodgkin lymphoma = assay: Inhibition of primary tumor cell cultures (48 hours) vs NK1 receptor immunostaining (Example 1); assay type: cell-based; settings: Homo sapiens, 1 micromolar, read-out: Percentage of inhibition of cell cultures
# Method: as §1, §2, §3
# [8] = test system: Melanoma (Nodular Melanoma); assay: Inhibition of primary tumor cell cultures vs Kras mutation (Example 2); assay type: cell-based, human; settings: Homo sapiens, Cases with Kras mutated; 100 micromolar; read-out: Percentage of inhibition of cell cultures
# Method: as §1, §6, §7
# (§9) The percentages of inhibition are expressed in percentage of variation in relation to control ± standard deviation.
# Endometrium carcinoma [9] = assay: as above; assay type: cell-based, human; settings: Homo sapiens, Cases with Kras mutated; 100 micromolar; read-out: Percentage of inhibition of cell cultures
# Method: as §4, §6, §7, §8
# [10] = test system: Thyroid carcinoma (papillary carcinoma); assay: as above; assay type: cell-based, human; settings: Homo sapiens, Cases with Kras mutated; 100 micromolar; read-out: Percentage of inhibition of cell cultures
# Method: as §5, §6, §7, §8
# Burkitt Lymphoma [11] = assay: Inhibition of primary tumor cell cultures (48 hours) vs NK1 receptor immunostaining (Example 1); assay type: cell-based; settings: Homo sapiens, 1 micromolar, read-out: Percentage of inhibition of cell cultures
# Method: as §1, §2, §3
# Burkitt Lymphoma [12] = assay: Inhibition of primary tumor cell cultures vs Kras mutation (Example 2); assay type: cell-based, human; settings: Homo sapiens, Cases with Kras mutated; 100 micromolar; read-out: Percentage of inhibition of cell cultures
# Method: as §1, §6, §7, §8
# [13] = test system: Breast carcinoma (ductal adenocarcinoma); assay: as above; assay type: cell-based, human; settings: Homo sapiens, Cases with Kras mutated; 100 micromolar; read-out: Percentage of inhibition of cell cultures
# Method: as §4, §6, §7, §8
# [14] = test system: Non Hodgkin Lymphoma B (diffuse B cell lymphoma); assay: as above; assay type: cell-based, human; settings: Homo sapiens, B-cell, Cases with Kras mutated; 100 micromolar; read-out: Percentage of inhibition of cell cultures
# Method: as §1, §6, §7, §9
# [15] = test system: Urinary bladder carcinoma (transitional cell carcinoma); assay: as above; assay type: cell-based, human; settings: Homo sapiens, Cases with Kras mutated; 100 micromolar; read-out: Percentage of inhibition of cell cultures
# Method: as §5, §6, §7, §8
# Endometrium carcinoma [16] = assay: cells; settings: Homo sapiens, 1 micromolar
# Method: as §1, §2, §3
# Colon carcinoma = assay: Inhibition of primary tumor cell cultures (48 hours) vs NK1 receptor immunostaining (Example 1); assay type: cell-based; settings: Homo sapiens, 1 micromolar, read-out: Percentage of inhibition of cell cultures
# Method: as §1, §2, §3
# [17] = test system: Thyroid carcinoma (papillary type); assay: as above; assay type: cell-based; settings: Homo sapiens, 1 micromolar, read-out: Percentage of inhibition of cell cultures
# Method: as §1, §2, §3
# [18] = NK1 receptor immunostaining Group 1 (less than 20% of the cells)
# [19] = NK1 receptor immunostaining Group 2 (20-80% of the cells)
# [20] = NK1 receptor immunostaining Group 3 (more than 80% of the cells)
# [21] = NK1 receptor immunostaining Intensity grade 1
# [22] = NK1 receptor immunostaining Intensity grade 2
# [23] = NK1 receptor immunostaining Intensity grade 3
# [24] = read-out: Percentage of inhibition of cell cultures, NK1 receptor immunostaining Group 1 (less than 20% of the cells)
# [25] = read-out: Percentage of inhibition of cell cultures, NK1 receptor immunostaining Group 2 (20-80% of the cells)
# [26] = read-out: Percentage of inhibition of cell cultures, NK1 receptor immunostaining Group 3 (more than 80% of the cells)
# [27] = read-out: Percentage of inhibition of cell cultures, NK1 receptor immunostaining Intensity grade 1
# [28] = read-out: Percentage of inhibition of cell cultures, NK1 receptor immunostaining Intensity grade 2
compound,measurement,setting,value
C[C@@H](O[C@H]1OCCN(Cc2n[nH]c(=O)[nH]2)[C@H]1c1ccc(F)cc1)c1cc(C(F)(F)F)cc(C(F)(F)F)c1 [Aprepitant],inhibition at 1 µM,Leukemia B; [18],11 ± 2%
same,inhibition at 1 µM,Leukemia B; [19],43 ± 4%
same,inhibition at 1 µM,Leukemia B; [20],95 ± 4%
same,inhibition at 1 µM,Leukemia B; [21],28 ± 5%
same,inhibition at 1 µM,Leukemia B; [22],54 ± 5%
same,inhibition at 1 µM,Leukemia B; [23],95 ± 6%
same,Percentage of inhibition of cell cultures,[1],95±3 percentage
same,inhibition at 1 µM,Glioma; [18],11 ± 4%
same,inhibition at 1 µM,Glioma; [19],47 ± 4%
same,inhibition at 1 µM,Glioma; [20],94 ± 6%
same,inhibition at 1 µM,Glioma; [21],28 ± 7%
same,inhibition at 1 µM,Glioma; [22],55 ± 6%
same,inhibition at 1 µM,Glioma; [23],97 ± 4%
same,inhibition at 1 µM,[2]; [18],10 ± 2%
same,inhibition at 1 µM,[2]; [19],42 ± 3%
same,inhibition at 1 µM,[2]; [20],97 ± 6%
same,inhibition at 1 µM,[2]; [21],29 ± 6%
same,inhibition at 1 µM,[2]; [22],56 ± 6%
same,inhibition at 1 µM,[2]; [23],96 ± 4%
same,Percentage of inhibition of cell cultures,[3]; cases with presence of ERK,94±4 percentage
same,Percentage of inhibition of cell cultures,[3]; cases without presence of ERK,23±3 percentage
same,inhibition at 1 µM,Prostate carcinoma; [24],11 ± 3%
same,inhibition at 1 µM,Prostate carcinoma; [25],46 ± 6%
same,inhibition at 1 µM,Prostate carcinoma; [26],95 ± 5%
same,inhibition at 1 µM,Prostate carcinoma; [27],27 ± 5%
same,inhibition at 1 µM,Prostate carcinoma; [28],58 ± 6%
same,inhibition at 1 µM,"Prostate carcinoma; read-out: Percentage of inhibition of cell cultures, NK1 receptor immunostaining Intensity grade 3",93 ± 7%
same,inhibition at 1 µM,[4]; [18],9 ± 3%
same,inhibition at 1 µM,[4]; [19],41 ± 3%
same,inhibition at 1 µM,[4]; [20],94 ± 7%
same,inhibition at 1 µM,[4]; [21],28 ± 5%
same,inhibition at 1 µM,[4]; [22],57 ± 5%
same,inhibition at 1 µM,[4]; [23],95 ± 3%
same,inhibition at 1 µM,Fibrosarcoma; [18],10 ± 3%
same,inhibition at 1 µM,Fibrosarcoma; [19],48 ± 3%
same,inhibition at 1 µM,Fibrosarcoma; [20],96 ± 5%
same,inhibition at 1 µM,Fibrosarcoma; [21],27 ± 6%
same,inhibition at 1 µM,Fibrosarcoma; [22],54 ± 5%
same,inhibition at 1 µM,Fibrosarcoma; [23],95 ± 5%
same,inhibition at 1 µM,[5]; [18],10 ± 2%
same,inhibition at 1 µM,[5]; [19],48 ± 5%
same,inhibition at 1 µM,[5]; [20],95 ± 5%
same,inhibition at 1 µM,[5]; [21],27 ± 4%
same,inhibition at 1 µM,[5]; [22],56 ± 4%
same,inhibition at 1 µM,[5]; [23],95 ± 4%
same,inhibition at 100 µM,[6],22 ± 4%
same,inhibition at 100 µM,[7],26 ± 3%
same,inhibition at 1 µM,Hodgkin lymphoma; [18],10 ± 3%
same,inhibition at 1 µM,Hodgkin lymphoma; [19],49 ± 3%
same,inhibition at 1 µM,Hodgkin lymphoma; [20],94 ± 5%
same,inhibition at 1 µM,Hodgkin lymphoma; [21],26 ± 5%
same,inhibition at 1 µM,Hodgkin lymphoma; [22],55 ± 3%
same,inhibition at 1 µM,Hodgkin lymphoma; [23],92 ± 6%
same,inhibition at 100 µM,[8],26 ± 4%
same,inhibition at 100 µM,Endometrium carcinoma [9],25 ± 4%
same,inhibition at 100 µM,[10],25 ± 4%
same,inhibition at 1 µM,Burkitt Lymphoma [11]; [18],10 ± 2%
same,inhibition at 1 µM,Burkitt Lymphoma [11]; [19],45 ± 6%
same,inhibition at 1 µM,Burkitt Lymphoma [11]; [20],96 ± 4%
same,inhibition at 1 µM,Burkitt Lymphoma [11]; [21],27 ± 5%
same,inhibition at 1 µM,Burkitt Lymphoma [11]; [22],55 ± 3%
same,inhibition at 1 µM,Burkitt Lymphoma [11]; [23],92 ± 5%
same,inhibition at 100 µM,Burkitt Lymphoma [12],24 ± 3%
same,inhibition at 100 µM,[13],22 ± 2%
same,inhibition at 100 µM,[14],27 ± 5%
same,inhibition at 100 µM,[15],26 ± 5%
same,inhibition at 1 µM,Endometrium carcinoma [16]; [24],12 ± 2%
same,inhibition at 1 µM,Endometrium carcinoma [16]; [25],49 ± 2%
same,inhibition at 1 µM,Endometrium carcinoma [16]; [26],95 ± 4%
same,inhibition at 1 µM,Endometrium carcinoma [16]; [27],25 ± 7%
same,inhibition at 1 µM,Endometrium carcinoma [16]; [28],59 ± 5%
same,inhibition at 1 µM,Colon carcinoma; [18],11 ± 4%
same,inhibition at 1 µM,Colon carcinoma; [19],44 ± 2%
same,inhibition at 1 µM,Colon carcinoma; [20],95 ± 4%
same,inhibition at 1 µM,Colon carcinoma; [21],26 ± 6%
same,inhibition at 1 µM,Colon carcinoma; [22],56 ± 6%
same,inhibition at 1 µM,Colon carcinoma; [23],95 ± 5%
same,inhibition at 1 µM,[17]; [18],10 ± 3%
same,inhibition at 1 µM,[17]; [19],47 ± 3%
same,inhibition at 1 µM,[17]; [20],97 ± 6%
same,inhibition at 1 µM,[17]; [21],27 ± 6%
same,inhibition at 1 µM,[17]; [22],56 ± 4%
